≈ marks a conversion by molar mass, not a printed value. Non-standard residues stand in square brackets, D forms with d. Residues, ends and D or L forms follow the SMILES beside them. Dab = NCC[C@H](N)C(=O)O
Columns and labels:
[1] = system: Pseudomonas aeruginosa IMP 1 Livermore 3140; assay type: cell-based; settings: IMP 1 Livermore 3140
Procedure, shortened: (§1)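 Antibacterial activity by modified NCCLS broth microdilution in Mueller-Hinton broth + 0.02% BSA. Inoculum was about 10^6 CFU/ml before 1:1 mixing with two-fold serial peptide dilutions.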

[2] = system: Pseudomonas aeruginosa P1021903; assay type: cell-based; settings: P1021903
Procedure, shortened: as §1

[3] = system: Pseudomonas aeruginosa P1021913; assay type: cell-based; settings: P1021913
Procedure, shortened: as §1

[4] = system: Pseudomonas aeruginosa P8191900; assay type: cell-based; settings: P8191900
Procedure, shortened: as §1

[5] = system: human red blood cells (hRBC); test: Hemolysis; assay type: cell-based; settings: 100
[6] = Plasma stability, human plasma; assay type: in vitro ADME
[7] = Plasma stability, rat plasma; assay type: in vitro ADME
[8] = system: Pseudomonas aeruginosa (ATCC 27853); test: In vivo septicemia assay; parameters: species or system CD-1 mice; settings: groups of 6 mice
Experimental: Groups of 6 CD-1 (Crl.) derived male mice weighing 24±2 g were used. The mice were each inoculated intravenously (IV) with an LD90-100 of Pseudomonas aeruginosa (ATCC 27853) (9×10^6 CFU/0.5 ml/mouse) in brain heart infusion broth without 5% mucin. Compound at doses of 5, 2.5, 1, 0.5, 0.25 and 0.1 mg/kg, vehicle (0.9% NaCl, 10 ml/kg) was administered subcutaneously (SC) to test animals at 1 hour after bacterial inoculation. Also, an additional group was treated twice with compound at a dose of 5 mg/kg at 1 and 6 hours after bacterial inoculation. Mortality was recorded once daily for 7 days following the bacterial inoculation and an increase of survival of the animals by 50 percent or more (^3 50%) after the bacterial inoculation, relative to vehicle control, indicates significant antimicrobial effect. The MED (ED50) was determined by nonlinear regression using Graph-Pad Prism (Graph Pad Software, USA).
Septicaemia experiment in mice: LD90-100 of Pseudomonas aeruginosa (ATCC 27853) (9×10^6 CFU/0.5 ml/mouse IV and after 1 h Ex. 1 s.c.
Septicaemia experiment in mice: LD90-100 of Pseudomonas aeruginosa (ATCC 27853) (9×10^6 CFU/0.5 ml/mouse IV), and after 1 and 5 h Ex. 40 s.c.
Septicaemia experiment in mice: LD90-100 of Pseudomonas aeruginosa (ATCC 27853) (9×10^6 CFU/0.5 ml/mouse IV), and after 1 and 5 h Ex. 50 s.c.

[9] = 0.1 mg/kg, 1 h after inoculation
[10] = 0.25 mg/kg, 1 h after inoculation
[11] = 0.5 mg/kg, 1 h after inoculation
[12] = 2.5 mg/kg, 1 h after inoculation

In the case of `CC[C@H](C)[C@@H]1NC(=O)[C@H](Cc2c[nH]c3ccccc23)NC(=O)[C@H]([C@@H](C)O)NC(=O)[C@@H]2CCCN2C(=O)[C@H]2CCCN2C(=O)[C@H](CCN)NC(=O)[C@H](C)NC(=O)[C@H](CCN)NC(=O)[C@H](CCN)NC(=O)[C@H](Cc2c[nH]c3ccccc23)NC(=O)[C@H](CCN)NC(=O)[C@H](CCN)NC(=O)[C@H](CCCCN)NC(=O)[C@H](CCN)NC1=O` [Example 1] (cyclo(TWI[Dab]K[Dab][Dab]W[Dab][Dab]A[Dab][dP]P)), the “MIC P. aeruginosa IMP1 Livermore 3140” value [1] is reported as 0.18 mg/L (≈ 0.114 µM), the “MIC P. aeruginosa P1021903” value [2] is reported as 0.07 mg/L (≈ 0.0443 µM) and the “MIC P. aeruginosa P1021913” value [3] is reported as 0.13 mg/L (≈ 0.0822 µM). The “MIC P. aeruginosa P8191900” value [4] was 0.07 mg/L (≈ 0.0443 µM), the “Hemolysis at 100 μg/ml” value [5] was 0.5% and the “Stability human Plasma t1/2” value [6] was 5 h. For the same compound, the “Stability rat Plasma t1/2” value [7] was 5 h, the Dead [8, 9] was 5 and the Survivors [8, 9] was 1. The Dead [8, 10] was 5, the Survivors [8, 10] was 1 and the Dead [8, 11] was 2. It also gave a Survivors [8, 11] of 4, a Dead ([8]; 1 mg/kg, 1 h after inoculation) of 1 and a Survivors ([8]; 1 mg/kg, 1 h after inoculation) of 5. The Dead [8, 12] was 0, the Survivors [8, 12] was 6 and the Dead ([8]; 5 mg/kg, 1 h after inoculation) was 0. The Survivors ([8]; 5 mg/kg, 1 h after inoculation) was 6, the Dead ([8]; 10 (2 × 5) mg/kg, 7 days) was 0 and the Survivors ([8]; 10 (2 × 5) mg/kg, 7 days) was 6. The “Average MIC” value (P. aeruginosa) was 0.10 mg/L.
